{"source": "PubChem BioAssay (NCI)", "experiment_in_all_cases": "growth of human tumour cells (NCI), 48 h", "key": {"CCRF-CEM leukemia": {"tested_on": "CCRF-CEM leukemia"}, "OVCAR-4 ovarian": {"tested_on": "OVCAR-4 ovarian"}, "SNB-75 CNS": {"tested_on": "SNB-75 CNS"}, "NCI/ADR-RES ovarian": {"tested_on": "NCI/ADR-RES ovarian"}, "NCI-H226 lung": {"tested_on": "NCI-H226 lung"}, "SK-MEL-5 melanoma": {"tested_on": "SK-MEL-5 melanoma"}, "HT29 colon": {"tested_on": "HT29 colon"}, "KM12 colon": {"tested_on": "KM12 colon"}}, "note": "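How tested: cells in 96-well plates exposed to compound for 48 hours at five concentrations. GI50: concentration for 50% inhibition of growth. TGI: concentration producing complete growth inhibition.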", "data": [{"smiles": "O=C(Nc1nc(-c2ccccc2Cl)cs1)c1cc(-c2ccc(Cl)cc2)nc2ccc(Cl)cc12", "values": [{"measurement": "GI50", "setting": "CCRF-CEM leukemia", "value": 3.54, "unit": "µM"}, {"measurement": "TGI", "setting": "CCRF-CEM leukemia", "value": "> 100", "unit": "µM"}, {"measurement": "GI50", "setting": "OVCAR-4 ovarian", "value": 9.92, "unit": "µM"}, {"measurement": "TGI", "setting": "OVCAR-4 ovarian", "value": "> 100", "unit": "µM"}, {"measurement": "GI50", "setting": "SNB-75 CNS", "value": 3.38, "unit": "µM"}, {"measurement": "TGI", "setting": "SNB-75 CNS", "value": "> 100", "unit": "µM"}, {"measurement": "GI50", "setting": "NCI/ADR-RES ovarian", "value": 1.73, "unit": "µM"}, {"measurement": "TGI", "setting": "NCI/ADR-RES ovarian", "value": "> 100", "unit": "µM"}, {"measurement": "GI50", "setting": "NCI-H226 lung", "value": 2.32, "unit": "µM"}, {"measurement": "TGI", "setting": "NCI-H226 lung", "value": 8.54, "unit": "µM"}, {"measurement": "GI50", "setting": "SK-MEL-5 melanoma", "value": 2.51, "unit": "µM"}, {"measurement": "TGI", "setting": "SK-MEL-5 melanoma", "value": 9.07, "unit": "µM"}, {"measurement": "GI50", "setting": "HT29 colon", "value": 3.52, "unit": "µM"}, {"measurement": "TGI", "setting": "HT29 colon", "value": "> 100", "unit": "µM"}, {"measurement": "GI50", "setting": "KM12 colon", "value": 3.5, "unit": "µM"}, {"measurement": "TGI", "setting": "KM12 colon", "value": 69.5, "unit": "µM"}]}, {"smiles": "O=C(O)C1C2CCC(O2)C1C(=O)NCc1cccnc1", "note": "(stereo not drawn)", "values": [{"measurement": "TGI", "setting": "CCRF-CEM leukemia", "value": "> 100", "unit": "µM"}, {"measurement": "TGI", "setting": "OVCAR-4 ovarian", "value": "> 100", "unit": "µM"}, {"measurement": "TGI", "setting": "SNB-75 CNS", "value": "> 100", "unit": "µM"}, {"measurement": "TGI", "setting": "NCI/ADR-RES ovarian", "value": "> 100", "unit": "µM"}, {"measurement": "TGI", "setting": "SK-MEL-5 melanoma", "value": "> 100", "unit": "µM"}, {"measurement": "TGI", "setting": "HT29 colon", "value": "> 100", "unit": "µM"}, {"measurement": "TGI", "setting": "KM12 colon", "value": "> 100", "unit": "µM"}]}, {"smiles": "CCCCCCn1c2c(c3c(O)cccc31)C(=O)c1ccccc1-2", "values": [{"measurement": "GI50", "setting": "CCRF-CEM leukemia", "value": 23.2, "unit": "µM"}, {"measurement": "TGI", "setting": "CCRF-CEM leukemia", "value": 50, "unit": "µM"}, {"measurement": "GI50", "setting": "OVCAR-4 ovarian", "value": 25, "unit": "µM"}, {"measurement": "TGI", "setting": "OVCAR-4 ovarian", "value": 53, "unit": "µM"}, {"measurement": "GI50", "setting": "SNB-75 CNS", "value": 46.3, "unit": "µM"}, {"measurement": "TGI", "setting": "SNB-75 CNS", "value": "> 100", "unit": "µM"}, {"measurement": "GI50", "setting": "NCI/ADR-RES ovarian", "value": 18, "unit": "µM"}, {"measurement": "TGI", "setting": "NCI/ADR-RES ovarian", "value": 33, "unit": "µM"}, {"measurement": "GI50", "setting": "NCI-H226 lung", "value": 21.6, "unit": "µM"}, {"measurement": "TGI", "setting": "NCI-H226 lung", "value": 39.7, "unit": "µM"}, {"measurement": "GI50", "setting": "SK-MEL-5 melanoma", "value": 19.4, "unit": "µM"}, {"measurement": "TGI", "setting": "SK-MEL-5 melanoma", "value": 34.6, "unit": "µM"}, {"measurement": "GI50", "setting": "HT29 colon", "value": 35.6, "unit": "µM"}, {"measurement": "TGI", "setting": "HT29 colon", "value": "> 100", "unit": "µM"}, {"measurement": "GI50", "setting": "KM12 colon", "value": 17.6, "unit": "µM"}, {"measurement": "TGI", "setting": "KM12 colon", "value": 34.4, "unit": "µM"}]}, {"smiles": "CSc1nc(SC)c2c(C)cn(C3OC(C)C(O)C(O)C3O)c2n1", "note": "(stereo not drawn)", "values": [{"measurement": "TGI", "setting": "CCRF-CEM leukemia", "value": "> 100", "unit": "µM"}, {"measurement": "TGI", "setting": "OVCAR-4 ovarian", "value": "> 100", "unit": "µM"}, {"measurement": "TGI", "setting": "SNB-75 CNS", "value": "> 100", "unit": "µM"}, {"measurement": "TGI", "setting": "NCI/ADR-RES ovarian", "value": "> 100", "unit": "µM"}, {"measurement": "TGI", "setting": "NCI-H226 lung", "value": "> 100", "unit": "µM"}, {"measurement": "TGI", "setting": "SK-MEL-5 melanoma", "value": "> 100", "unit": "µM"}, {"measurement": "TGI", "setting": "HT29 colon", "value": "> 100", "unit": "µM"}, {"measurement": "TGI", "setting": "KM12 colon", "value": "> 100", "unit": "µM"}]}, {"smiles": "O=C(O)c1c[nH]c2c(ccc3[nH]cc(C(=O)O)c(=O)c32)c1=O", "values": [{"measurement": "TGI", "setting": "OVCAR-4 ovarian", "value": "> 100", "unit": "µM"}, {"measurement": "TGI", "setting": "SNB-75 CNS", "value": 75, "unit": "µM"}, {"measurement": "TGI", "setting": "NCI/ADR-RES ovarian", "value": "> 100", "unit": "µM"}, {"measurement": "TGI", "setting": "NCI-H226 lung", "value": "> 100", "unit": "µM"}, {"measurement": "TGI", "setting": "SK-MEL-5 melanoma", "value": "> 100", "unit": "µM"}, {"measurement": "TGI", "setting": "HT29 colon", "value": "> 100", "unit": "µM"}, {"measurement": "TGI", "setting": "KM12 colon", "value": "> 100", "unit": "µM"}]}, {"smiles": "ClCc1ccc(-c2ccc(Cn3cnc4c(Cl)ncnc43)cc2)cc1", "values": [{"measurement": "GI50", "setting": "CCRF-CEM leukemia", "value": 2.58, "unit": "µM"}, {"measurement": "TGI", "setting": "CCRF-CEM leukemia", "value": "> 100", "unit": "µM"}, {"measurement": "GI50", "setting": "OVCAR-4 ovarian", "value": 1.46, "unit": "µM"}, {"measurement": "TGI", "setting": "OVCAR-4 ovarian", "value": 4.28, "unit": "µM"}, {"measurement": "GI50", "setting": "NCI/ADR-RES ovarian", "value": 2.16, "unit": "µM"}, {"measurement": "TGI", "setting": "NCI/ADR-RES ovarian", "value": 4.7, "unit": "µM"}, {"measurement": "GI50", "setting": "NCI-H226 lung", "value": 1.81, "unit": "µM"}, {"measurement": "TGI", "setting": "NCI-H226 lung", "value": 3.89, "unit": "µM"}, {"measurement": "GI50", "setting": "SK-MEL-5 melanoma", "value": 2.49, "unit": "µM"}, {"measurement": "TGI", "setting": "SK-MEL-5 melanoma", "value": 7.17, "unit": "µM"}, {"measurement": "GI50", "setting": "KM12 colon", "value": 1.59, "unit": "µM"}, {"measurement": "TGI", "setting": "KM12 colon", "value": 3.56, "unit": "µM"}]}, {"smiles": "C=CCCCC(O)c1ccc(C(O)c2cnc3ccccc3c2)o1", "note": "(stereo not drawn)", "values": [{"measurement": "GI50", "setting": "CCRF-CEM leukemia", "value": 29.4, "unit": "µM"}, {"measurement": "TGI", "setting": "CCRF-CEM leukemia", "value": 86.7, "unit": "µM"}, {"measurement": "GI50", "setting": "OVCAR-4 ovarian", "value": "> 100", "unit": "µM"}, {"measurement": "TGI", "setting": "OVCAR-4 ovarian", "value": "> 100", "unit": "µM"}, {"measurement": "GI50", "setting": "SNB-75 CNS", "value": 99.2, "unit": "µM"}, {"measurement": "TGI", "setting": "SNB-75 CNS", "value": "> 100", "unit": "µM"}, {"measurement": "GI50", "setting": "NCI/ADR-RES ovarian", "value": 15.2, "unit": "µM"}, {"measurement": "TGI", "setting": "NCI/ADR-RES ovarian", "value": 36.9, "unit": "µM"}, {"measurement": "GI50", "setting": "NCI-H226 lung", "value": 30.8, "unit": "µM"}, {"measurement": "TGI", "setting": "NCI-H226 lung", "value": 71.5, "unit": "µM"}, {"measurement": "GI50", "setting": "SK-MEL-5 melanoma", "value": 9.52, "unit": "µM"}, {"measurement": "TGI", "setting": "SK-MEL-5 melanoma", "value": 22.4, "unit": "µM"}, {"measurement": "GI50", "setting": "HT29 colon", "value": 46.9, "unit": "µM"}, {"measurement": "TGI", "setting": "HT29 colon", "value": "> 100", "unit": "µM"}, {"measurement": "GI50", "setting": "KM12 colon", "value": 28.1, "unit": "µM"}, {"measurement": "TGI", "setting": "KM12 colon", "value": 77.9, "unit": "µM"}]}, {"smiles": "CCOC(=O)Nc1cc(-c2ccc(C)c(NS(C)(=O)=O)c2)nn2c(C)nnc12", "values": [{"measurement": "GI50", "setting": "CCRF-CEM leukemia", "value": 1.01, "unit": "µM"}, {"measurement": "TGI", "setting": "CCRF-CEM leukemia", "value": 14.9, "unit": "µM"}, {"measurement": "GI50", "setting": "OVCAR-4 ovarian", "value": 0.735, "unit": "µM"}, {"measurement": "TGI", "setting": "OVCAR-4 ovarian", "value": 10.9, "unit": "µM"}, {"measurement": "GI50", "setting": "SNB-75 CNS", "value": 0.477, "unit": "µM"}, {"measurement": "TGI", "setting": "SNB-75 CNS", "value": 9.13, "unit": "µM"}, {"measurement": "GI50", "setting": "NCI/ADR-RES ovarian", "value": 6.26, "unit": "µM"}, {"measurement": "TGI", "setting": "NCI/ADR-RES ovarian", "value": "> 100", "unit": "µM"}, {"measurement": "GI50", "setting": "NCI-H226 lung", "value": 3.93, "unit": "µM"}, {"measurement": "TGI", "setting": "NCI-H226 lung", "value": 24.4, "unit": "µM"}, {"measurement": "GI50", "setting": "SK-MEL-5 melanoma", "value": 2.68, "unit": "µM"}, {"measurement": "TGI", "setting": "SK-MEL-5 melanoma", "value": 10.4, "unit": "µM"}, {"measurement": "GI50", "setting": "HT29 colon", "value": 0.809, "unit": "µM"}, {"measurement": "TGI", "setting": "HT29 colon", "value": 14.1, "unit": "µM"}, {"measurement": "GI50", "setting": "KM12 colon", "value": 2.02, "unit": "µM"}, {"measurement": "TGI", "setting": "KM12 colon", "value": 19.7, "unit": "µM"}]}]}
